The term IC50 denotes the concentration at which inhibition is half-maximal.

Where a name gives a salt, the structure may show the parent alone.

Among the data in patent publication US20260250290A1 (BRISTOL-MYERS SQUIBB COMPANY, priority 2023, published 2026) are IC50 values, retold here.

The target in the assay is T1, full length SGK1 (Homo sapiens, UniProt O00141).
T1 construct: 125 μM full length SGK1 (Life Technologies Part #PR7358A); purchased Life Technologies PR7358A
T1 sequence (O00141 1-431): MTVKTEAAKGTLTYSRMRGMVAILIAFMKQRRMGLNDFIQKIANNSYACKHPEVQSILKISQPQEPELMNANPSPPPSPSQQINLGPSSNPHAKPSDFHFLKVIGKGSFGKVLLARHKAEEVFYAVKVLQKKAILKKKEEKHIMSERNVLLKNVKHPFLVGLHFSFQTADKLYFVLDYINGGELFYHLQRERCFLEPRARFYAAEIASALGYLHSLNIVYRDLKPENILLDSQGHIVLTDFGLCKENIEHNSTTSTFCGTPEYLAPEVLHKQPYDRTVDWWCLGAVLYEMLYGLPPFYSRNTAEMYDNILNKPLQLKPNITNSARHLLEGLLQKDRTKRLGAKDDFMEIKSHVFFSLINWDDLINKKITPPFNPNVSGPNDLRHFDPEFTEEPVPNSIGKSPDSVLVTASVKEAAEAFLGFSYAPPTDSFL
The assay is described as follows: SGK1 inhibition Assay A (Caliper LabChip electrophoretic separation of fluorescent peptide substrate and phosphorylated product). It counts as biochemical. Particulars: Assay A; 20 μM ATP, 40 min incubation; read-out: SGK1 IC50.
In the case of `Cc1ccc(C(=O)N[C@@H]2CCCN(c3cc(-c4ccncc4)n4ncnc(N)c34)C2)s1` [Example 128, N-[(3R)-1-[4-amino-7-(pyridin-4-yl)pyrrolo[2,1-f][1,2,4]triazin-5-yl]piperidin-3-yl]-5-methylthiophene-2-carboxamide], the IC50 amounted to 2 nM.

For `CC(=O)Nc1cccc(C(=O)N[C@@H]2CCCN(c3cc(C4=CCN(C(C)=O)C4)n4ncnc(N)c34)C2)c1` [Example 447, (R)-3-acetamido-N-(1-(7-(1-acetyl-2,5-dihydro-1H-pyrrol-3-yl)-4-aminopyrrolo[2,1-f][1,2,4]triazin-5-yl)piperidin-3-yl)benzamide], the IC50 was found to be 19 nM.

For the molecule `Cn1cc(-c2cc(N3CCC[C@@H](NC(=O)c4ccc(Cl)s4)C3)c3c(N)ncnn23)cn1` [Example 216, (R)-N-(1-(4-amino-7-(1-methyl-1H-pyrazol-4-yl)pyrrolo[2,1-f][1,2,4]triazin-5-yl)piperidin-3-yl)-5-chlorothiophene-2-carboxamide, TFA], the IC50 was found to be 26 nM.

Regarding `CS(=O)(=O)c1ccc(-c2cc(N3CCC[C@@H](NC(=O)c4cccc(-c5cnco5)c4)C3)c3c(N)ncnn23)cc1` [Example 51, (R)-N-(1-(4-amino-7-(4-(methylsulfonyl)phenyl)pyrrolo[2,1-f][1,2,4]triazin-5-yl)piperidin-3-yl)-3-(oxazol-5-yl)benzamide], the IC50 came out at 13 nM.

For `COc1cnccc1-c1cc(N2CCC[C@@H](NC(=O)c3ccc(Cl)s3)C2)c2c(N)ncnn12` [Example 213, (R)-N-(1-(4-amino-7-(3-methoxypyridin-4-yl)pyrrolo[2,1-f][1,2,4]triazin-5-yl)piperidin-3-yl)-5-chlorothiophene-2-carboxamide, TFA], the IC50 amounted to 5 nM.

With `CS(=O)(=O)c1ccc(-c2cc(N3CCC[C@@H](C(=O)Nc4ccccc4)C3)c3c(N)ncnn23)cc1` [Example 105, (R)-1-(4-amino-7-(4-(methylsulfonyl)phenyl)pyrrolo [2,1-f][1,2,4]triazin-5-yl)-N-phenylpiperidine-3-carboxamide], the IC50 was 335 nM.

As for `CC(=O)NCCOc1cc(C(F)F)sc1C(=O)N[C@@H]1CCCN(c2cc(-c3cncnc3)n3ncnc(N)c23)C1` [Example 424, (R)-3-(2-acetamidocthoxy)-N-(1-(4-amino-7-(pyrimidin-5-yl)pyrrolo[2,1-f][1,2,4]triazin-5-yl)piperidin-3-yl)-5-(difluoromethyl)thiophene-2-carboxamide], the IC50 worked out at 49 nM.

As for `Nc1ncnn2c(C3=CCN(C(=O)C4CC45CC5)C3)cc(N3CCC[C@@H](NC(=O)c4sc(Cl)cc4OCCN4CCOCC4)C3)c12` (stereo partly drawn) [Example 265, N-((3R)-1-(4-amino-7-(1-(spiro[2.2]pentane-1-carbonyl)-2,5-dihydro-1H-pyrrol-3-yl)pyrrolo[2,1-f][1,2,4]triazin-5-yl)piperidin-3-yl)-5-chloro-3-(2-morpholinoethoxy)thiophene-2-carboxamide], the IC50 was determined as 18 nM.

Take `CS(=O)(=O)c1ccc(-c2cc(N3CCC[C@@H](NC(=O)c4ccccc4)C3)c3c(N)ncnn23)cc1` [Example 13, (R)—N-(1-(4-amino-7-(4-(methylsulfonyl)phenyl)pyrrolo[2,1-f][1,2,4]triazin-5-yl)piperidin-3-yl)benzamide]: the IC50 worked out at 28 nM.

With `Nc1ncnn2c(-c3cncnc3)cc(N3CCC[C@@H](NC(=O)c4sc5ccc(F)cc5c4OC4CCNCC4)C3)c12` [Example 688, (R)—N-(1-(4-amino-7-(pyrimidin-5-yl)pyrrolo[2,1-f][1,2,4]triazin-5-yl)piperidin-3-yl)-5-fluoro-3-(piperidin-4-yloxy)benzo[b]thiophene-2-carboxamide], the IC50 was 161 nM.

For the molecule `Nc1ncnn2c(-c3ccn[nH]3)cc(N3CCC[C@@H](NC(=O)c4ccc(Cl)s4)C3)c12` [Example 211, (R)-N-(1-(4-amino-7-(1H-pyrazol-5-yl)pyrrolo[2,1-f][1,2,4]triazin-5-yl)piperidin-3-yl)-5-chlorothiophene-2-carboxamide], the concentration for half-maximal inhibition (IC50) was determined as 3 nM.

As to `CN(C)CCOc1cc(Cl)sc1C(=O)N[C@@H]1CCCN(c2cc(C3=CCN(C(=O)CC(F)(F)F)CC3)n3ncnc(N)c23)C1` [Example 181, (R)-N-(1-(4-amino-7-(1-(3,3,3-trifluoropropanoyl)-1,2,3,6-tetrahydropyridin-4-yl)pyrrolo[2,1-f][1,2,4]triazin-5-yl)piperidin-3-yl)-5-chloro-3-(2-(dimethylamino)ethoxy) thiophene-2-carboxamide, 2 TFA], the IC50 came out at 17 nM.

Take `Nc1ncnn2c(-c3cncnc3)cc(N3CCC[C@@H](NC(=O)c4sc(Cl)cc4OCC(=O)N4CCCC4)C3)c12` [Example 419, (R)-N-(1-(4-amino-7-(pyrimidin-5-yl)pyrrolo[2,1-f][1,2,4]triazin-5-yl)piperidin-3-yl)-5-chloro-3-(2-oxo-2-(pyrrolidin-1-yl)ethoxy) thiophene-2-carboxamide]: the IC50 was determined as 120 nM.

`CC(=O)N1CC=C(c2cc(OCCN(C)C)c(C(=O)N[C@@H]3CCCN(c4cc(C5=CCN(C(C)=O)C5)n5ncnc(N)c45)C3)s2)C1` [Example 910, (R)-5-(1-acetyl-2,5-dihydro-1H-pyrrol-3-yl)-N-(1-(7-(1-acetyl-2,5-dihydro-1H-pyrrol-3-yl)-4-aminopyrrolo[2,1-f][1,2,4]triazin-5-yl)piperidin-3-yl)-3-(2-(dimethylamino)ethoxy)thiophene-2-carboxamide]: the IC50 worked out at 59 nM.

Consider `CS(=O)(=O)c1ccc(-c2cc(N3CCC[C@@H](NC(=O)C4CCOCC4)C3)c3c(N)ncnn23)cc1` [Example 17, (R)-N-(1-(4-amino-7-(4-(methylsulfonyl)phenyl)pyrrolo[2,1-f][1,2,4]triazin-5-yl)piperidin-3-yl)tetrahydro-2H-pyran-4-carboxamide, TFA], for which the IC50 is 1300 nM.

Regarding `C[C@@]1(NC(=O)c2ccc(Cl)s2)CCCN(c2cc(-c3ccc(S(C)(=O)=O)cc3)n3ncnc(N)c23)C1` [Example 146, (R)—N-(1-(4-amino-7-(4-(methylsulfonyl)phenyl)pyrrolo[2,1-f][1,2,4]triazin-5-yl)-3-methylpiperidin-3-yl)-5-chlorothiophene-2-carboxamide, TFA], the IC50 came to 835 nM.

On to `CC(=O)N1CC=C(c2cc(N3CCC[C@@H](NC(=O)c4sc(C(F)F)cc4OC4CCN(C)CC4)C3)c3c(N)ncnn23)C1` [Example 438, (R)—N-(1-(7-(1-acetyl-2,5-dihydro-1H-pyrrol-3-yl)-4-aminopyrrolo[2,1-f][1,2,4]triazin-5-yl)piperidin-3-yl)-5-(difluoromethyl)-3-((1-methylpiperidin-4-yl)oxy)thiophene-2-carboxamide], for which the IC50 worked out at 6 nM.

Consider `CCn1cc(-c2cc(N3CCC[C@@H](NC(=O)c4sc(Cl)cc4OCCN(C)C)C3)c3c(N)ncnn23)cc(C)c1=O` [Example 692, (R)—N-(1-(4-amino-7-(1-ethyl-5-methyl-6-oxo-1,6-dihydropyridin-3-yl)pyrrolo[2,1-f][1,2,4]triazin-5-yl)piperidin-3-yl)-5-chloro-3-(2-(dimethylamino)ethoxy)thiophene-2-carboxamide], for which the IC50 came out at 98 nM.

For the molecule `CC(=O)N1CC=C(c2cc(N3CCC[C@@H](NC(=O)c4nccn4C)C3)c3c(N)ncnn23)C1` [Example 708], the IC50 was found to be 494 nM.

As for `CC(=O)N1CC=C(c2cc(N3CCC[C@@H](NC(=O)c4ccc5n(c4=O)CCC5)C3)c3c(N)ncnn23)C1` [Example 746, (R)-N-(1-(7-(1-acetyl-2,5-dihydro-1H-pyrrol-3-yl)-4-aminopyrrolo[2,1-f][1,2,4]triazin-5-yl)piperidin-3-yl)-5-oxo-1,2,3,5-tetrahydroindolizine-6-carboxamide], the IC50 came to 784 nM.

In the case of `CC1(NC(=O)c2ccc(Cl)s2)CCCN(c2cc(-c3ccc(S(C)(=O)=O)cc3)n3ncnc(N)c23)C1` (stereo not shown) [Example 145, N-(1-(4-amino-7-(4-(methylsulfonyl)phenyl)pyrrolo[2,1-f][1,2,4]triazin-5-yl)-3-methylpiperidin-3-yl)-5-chlorothiophene-2-carboxamide, TFA], the IC50 worked out at 765 nM.

With `CN(C)CCOc1cc(Cl)sc1C(=O)N[C@@H]1CCCN(c2cc(C3=CCN(C(=O)C4CCC4)CC3)n3ncnc(N)c23)C1` [Example 183, (R)-N-(1-(4-amino-7-(1-(cyclobutanecarbonyl)-1,2,3,6-tetrahydropyridin-4-yl)pyrrolo[2,1-f][1,2,4]triazin-5-yl)piperidin-3-yl)-5-chloro-3-(2-(dimethylamino)ethoxy) thiophene-2-carboxamide, 2 TFA], the IC50 was determined as 42 nM.

`Cc1cc(-c2cc(N3CCC[C@@H](NC(=O)c4sc(C(F)F)cc4OCCN(C)C)C3)c3c(N)ncnn23)cc(C(F)F)n1` [Example 312, (R)-N-(1-(4-amino-7-(2-(difluoromethyl)-6-methylpyridin-4-yl)pyrrolo[2,1-f] [1,2,4]triazin-5-yl)piperidin-3-yl)-5-(difluoromethyl)-3-(2-(dimethylamino)ethoxy)thiophene-2-carboxamide]: the IC50 amounted to 32 nM.

In the case of `CC(=O)N1CC=C(c2cc(N3CCC[C@@H](NC(=O)c4ccnc(N5CCN(C)CC5)n4)C3)c3c(N)ncnn23)C1` [Example 741], the IC50 amounted to 3 nM.

In the case of `NC(=O)c1ccc(-c2cc(N3CCC[C@@H](NC(=O)c4sc(C5CC5)cc4OC4CNC4)C3)c3c(N)ncnn23)cc1F` [Example 389, (R)—N-(1-(4-amino-7-(4-carbamoyl-3-fluorophenyl)pyrrolo[2,1-f][1,2,4]triazin-5-yl)piperidin-3-yl)-3-(azetidin-3-yloxy)-5-cyclopropylthiophene-2-carboxamide], the IC50 is 0.4 nM.
